Assay: Human HepG2 cell viability assay in 384 well format
Type: toxicity, cell-based
Set-up: dose 125 nL, time 70.5 hour; concentration not given beside the values
Settings: HepG2 cells, read-out: Inhibition

SMILES | cytotoxicity at 70.5 h
Cc1ccsc1[C@@H]1CCN(C(=O)CCCn2cncn2)C[C@H]1O | -7.81%
CNc1nc(N2CCN(C)C(CCO)C2)nc2c1CCC2 (stereo unspecified) | 2.44%
COCC(=O)N1CCC2(CC1)c1ccccc1[C@@H](N1CCSCC1)[C@@H]2O | 4.64%
Cc1cnc(C)c(Oc2ccc(Cl)c(CN3CCCC3)c2Cl)n1 | 18.5%
O=C(c1ccc(-n2cnnc2)nc1)N1CCCC(O)(CO)CC1 (stereo unspecified) | -22.7%
CC(C)c1nnsc1CN1CCc2[nH]nc(-c3ccc(F)c(F)c3)c2C1 | -11.6%
Cc1cc(N2CCN(Cc3ccsc3)C(CCO)C2)nc(N)n1 (stereo unspecified) | -6.22%
CN(Cc1ccncc1)CC1CCCN(CCc2ccc(Cl)cc2)C1 (stereo unspecified) | -0.313%
CN(C)C(=O)c1ccc(-c2cccc3c2CCNC3)o1 | -5.11%
CCc1nnsc1C(=O)NCCC1CCCN(C(C)C)C1 (stereo unspecified) | 24.8%
Cc1cnn(C2(C(=O)O)CCN(c3ccnc4cc(Cl)ccc34)CC2)c1 | -5.05%
Cc1ccc2nc(C3CCCN3Cc3csc(C)n3)[nH]c2c1 (stereo unspecified) | -6.25%
COc1ccc(Cn2cc(C(=O)N(C)Cc3ccon3)nn2)cc1 | -3.92%
Cc1ccc2nc(C(=O)N3C[C@@H](C(=O)O)[C@H](c4ccccc4)C3)cn2c1 | -8.12%
COCCC(=O)N1CCCCC1c1ccc(F)cc1 (stereo unspecified) | 5.22%
CCc1nc(N2CCC3(CC2)CC(=O)N(Cc2ccc(Cl)cc2)C3)no1 | -10.7%
Cc1nc2c(c(NCCc3nccs3)n1)CCN(CC1CC1)CC2 | -14.3%
O=C(NCc1nc[nH]n1)c1cc(COc2cccc(F)c2)[nH]n1 | 11.1%
Cn1ccnc1C(=O)N1CCCC(Cn2cc(CO)nn2)C1 (stereo unspecified) | -1.24%

SMILES | cytotoxicity at 70.5 h
CN(C)c1cnn(CC(=O)N2CCN(Cc3cccs3)CC2)c(=O)c1 | -8.39%
COCc1cc(N2CCOC(c3ccc(Cl)cc3)C2)ncn1 (stereo unspecified) | -10.8%
CC(C)NC(=O)CNC(C)COc1ccccc1 (stereo unspecified) | -12.1%
c1ccc(CCc2noc(CN3CCC(N4CCSCC4)CC3)n2)cc1 | -2.58%
CCC(CNC(=O)c1cc(CC(C)C)nn1C)N(C)CC (stereo unspecified) | -8.14%
Cc1n[nH]cc1C(=O)NCc1cccnc1N1CCc2ccccc2C1 | -3.05%
O=C(CN1C(=O)CCNC1=O)N1CCC(c2ccc(F)cc2)C1 (stereo unspecified) | -5.75%
CN(C)CC1(O)CCCN(c2noc(-c3ccccc3)n2)CC1 (stereo unspecified) | 6.79%
CN(C)Cc1csc(-c2nccn2Cc2ccsc2)c1 | 3.09%
CCNC(=O)C1CCN(c2cc(CC)nc3ccnn23)C1 (stereo unspecified) | 15.1%
Cc1ccc2nc(CN(C)Cc3n[nH]c4c3CCCCC4)[nH]c2c1C | -3.25%
CCC(C)Oc1ccccc1CN1Cc2ncccc2C1=O (stereo unspecified) | 0.0852%
CCCn1cc(NC(=O)NCC2CCS(=O)(=O)C2)nn1 (stereo unspecified) | -9.78%
CCc1cc(N(C)Cc2noc(CC(C)C)n2)ncn1 | 21.2%
O=C(CN1C[C@H]2CC[C@@H]1CN(Cc1ccccn1)C2)NCc1cccs1 | -7.94%
Cc1nc(CCNC2CCN(Cc3ccccc3)C2)sc1C (stereo unspecified) | -4.05%
CC(CO)CN(Cc1ccccc1)Cc1cnc2ccccc2n1 (stereo unspecified) | -8.82%
CCC[C@@H]1CN(C(=O)c2c(F)ccc(C)c2Cl)C[C@H]1C(=O)O | 0.166%
CCc1oc(C(=O)N(C)Cc2ccncc2)cc1CN(CC)CC | -6.93%

SMILES | cytotoxicity at 70.5 h
CCCOC(=O)N1CCCn2nc(C(=O)Nc3ccccc3)cc2C1 | -9.85%
O[C@@H]1CN(CC2CC2)CC[C@H]1N1CCN(c2ccccc2F)CC1 | 0.0849%
CCCc1nc(N2CCN(Cc3ccccn3)CC2)c2cnn(C)c2n1 | -6.11%
c1ccc(N2CCCC(c3nc(-c4cccnn4)no3)C2)nc1 (stereo unspecified) | -11.5%
O=C1CC2(CCN(Cc3ncc[nH]3)CC2)CN1Cc1ccc(Cl)cc1 | -2.21%
COc1cccc(-c2n[nH]cc2C(=O)NC(C)c2n[nH]c(C)n2)c1 (stereo unspecified) | 13.9%
CN1CCCN(c2cnn(Cc3ccncc3)c(=O)c2)CC1 | -9.95%
CCc1cc(N2CCC(NCCSc3nnnn3C)CC2)nc(C)n1 | -0.17%
Cc1nccn1CCC1CCN(c2ncccn2)CC1 | -6.44%
CCN(CC)CCN(C)c1nc(-c2ccc(Cl)cc2)nc2c1CNC2 | 20.6%
CN(CCCOc1ccccc1Cl)C(=O)CN1CCCCCC1=O | -0.255%
COc1cccc(CN2CCC(CO)(Cc3ccc(Cl)cc3)CC2)c1O | -5.98%
COc1ccc2c(C)c(C(=O)NC3CCCOC3)oc2c1 (stereo unspecified) | -4.44%
N#Cc1ccccc1CN1CCCC(c2nccn2CC2CC2)C1 (stereo unspecified) | 12.6%
CNC(=O)c1n[nH]c2c1C(c1cccc3[nH]ccc13)CC(=O)N2 (stereo unspecified) | -3.23%
O=C(O)c1cn(CC2CCCN(c3nccc4occc34)C2)nn1 (stereo unspecified) | -14.6%
COCc1cc(CN(C)C(=O)CCC(=O)Nc2cc(C)ccc2F)n[nH]1 | -6.52%
CCn1cc(CN2CCCC(c3[nH]ncc3-c3ccc(F)cc3)C2)cn1 (stereo unspecified) | -19.8%
